Experimental data published in US20240059703A1 (AMGEN INC., priority 2021, published 2024).

Key:
[1] = test system: phosphorylation of extracellular signal-regulated kinase (ERK); settings: preclinical studies; cited from earlier work
[2] = test system: MIA PaCa-2 (human pancreatic carcinoma) cells; test: Cell Viability Assay (CellTiter-Glo), MIA PaCa-2; type: cell-based; settings: Homo sapiens, MIA PaCa-2, 72 h
Description: Serially-diluted compound or DMSO was added to the cells, and plates were incubated at 37° C., 5% CO2 for 72 h. Cell viability was measured using a CellTiter-Glo® Luminescent Cell Viability Assay kit (Promega) according to the manufacturer's protocol. The luminescence signal of treated samples was normalized to DMSO control, and data were analyzed using a 4-parameter logistic model to calculate IC50 values.

KRAS G12C [3] = target: T1, KRAS G12C (Homo sapiens (Human), UniProt P01116, C118A/G12C); test: 20 h coupled exchange assay; type: biochemical; settings: value marked ** in the Avg 2 h column; footnote not given, taken as 20 h pre-incubation
T1 sequence (P01116 other isoform, or with tags, fused parts or gaps G12C/C118A): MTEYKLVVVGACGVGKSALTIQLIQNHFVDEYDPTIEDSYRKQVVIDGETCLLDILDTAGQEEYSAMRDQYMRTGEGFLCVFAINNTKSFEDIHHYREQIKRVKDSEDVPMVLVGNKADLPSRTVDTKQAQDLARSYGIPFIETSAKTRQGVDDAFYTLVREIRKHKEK
Description: (§1) The term “2 h coupled exchange assay” or “20 h coupled exchange assay” as used herein refers to the assay described in the Section entitled “BIOLOGICAL EVALUATION.”

[4] = test system: A549 (human lung carcinoma) cells; test: Cell Viability Assay (CellTiter-Glo), A549; type: cell-based; settings: Homo sapiens, A549, 72 h
How it was run: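 RPMI 1640/10% FBS; seed 1.67E+04 cells/mL, o/n 37° C., 5% CO2; serial-dilution cmpd 72 h; CellTiter-Glo luminescence vs DMSO; 4-parameter logistic fit → IC50.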

KRAS G12C [5] = target: T1, KRAS G12C; test: 2 h coupled exchange assay; type: biochemical; settings: Avg 2 h Coupled exchange IC50, 2 h compound pre-incubation
Description: as §1

Row | IC50 [2] | IC50 (KRAS G12C [3]) | IC50 [4] | IC50 (KRAS G12C [5]) | SMILES | inhibition of phosphorylation of extracellular signal-regulated kinase (ERK) [1]
1 | > 5000 nM | 4650 nM | > 5000 nM | – | C=CC(=O)N1CC2(CCN(c3nc(-c4c(C)ccc5[nH]ncc45)c4ncn(C)c4n3)C2)C1 [Example 1-20, 1-(6-(9-methyl-6-(5-methyl-1H-indazol-4-yl)-9H-purin-2-yl)-2,6-diazaspiro[3.4]octan-2-yl)-2-propen-1-one] | –
2 | – | 1380 nM | – | – | C=CC(=O)N1CC2(CCN(c3cc(-c4c(C)ccc5[nH]ncc45)c4occ(C)c4n3)C2)C1 [Example 3, 1-(6-(3-Methyl-7-(5-methyl-1H-indazol-4-yl)furo[3,2-b]pyridin-5-yl)-2,6-diazaspiro[3.4]octan-2-yl)prop-2-en-1-one] | –
3 | 996 nM | – | > 5000 nM | 134 nM | C=CC(=O)N1CC2(CCN(c3nc4cc(OC)ccc4c(-c4c(C)ccc5[nH]ncc45)c3F)C2)C1 [Example 27-1, 1-(6-(3-fluoro-7-methoxy-4-(5-methyl-1H-indazol-4-yl)-2-quinolinyl)-2,6-diazaspiro[3.4]octan-2-yl)-2-propen-1-one] | –
4 | 2640 nM | – | > 5000 nM | 121 nM | C=CC(=O)N1CC2(CCN(c3nc4ccccc4c(-c4c(C)ccc5[nH]ncc45)c3Cl)C2)C1 [Example 27-2, 1-(6-(3-chloro-4-(5-methyl-1H-indazol-4-yl)-2-quinolinyl)-2,6-diazaspiro[3.4]octan-2-yl)-2-propen-1-one] | –
5 | 34 nM | – | > 5000 nM | 76 nM | C=CC(=O)N1CC2(CCN(c3cc4c(c(-c5c(C)ccc6[nH]ncc56)c3Cl)OCCC4)C2)C1 [Example 31-1, 1-(6-(7-chloro-8-(5-methyl-1H-indazol-4-yl)-3,4-dihydro-2H-chromen-6-yl)-2,6-diazaspiro[3.4]octan-2-yl)-2-propen-1-one] | –
6 | 348 nM | – | 12700 nM | 407 nM | C=CC(=O)N1CC2(CCN(c3nc4c(c(-c5cc(N)cc6ccccc56)c3C#N)COC(C)(C)C4)C2)C1 [Example 38-1, 4-(3-amino-1-naphthalenyl)-7,7-dimethyl-2-(2-(2-propenoyl)-2,6-diazaspiro[3.4]octan-6-yl)-7,8-dihydro-5H-pyrano[4,3-b]pyridine-3-carbonitrile] | –

More lines, now with the values behind:

Row | SMILES | IC50 [2] | IC50 (KRAS G12C [3]) | IC50 [4] | IC50 (KRAS G12C [5]) | inhibition of phosphorylation of extracellular signal-regulated kinase (ERK) [1]
7 | C=CC(=O)N1CCN(c2nc(=O)n(-c3c(C)ccnc3C(C)C)c3nc(-c4c(O)cccc4F)c(F)cc23)[C@@H](C)C1 [AMG 510] | – | – | – | – | inhibited nearly all detectable phosphorylation
8 | C=CC(=O)N1CC2(CCN(c3nc4c(c(-c5ccccc5F)c3C#N)CCC(c3scnc3CO)=C4)C2)C1 [Example 23-56, 4-(2-fluorophenyl)-7-(4-(hydroxymethyl)-1,3-thiazol-5-yl)-2-(2-(2-propenoyl)-2,6-diazaspiro[3.4]octan-6-yl)-5,6-dihydro-3-quinolinecarbonitrile] | 487 nM | – | > 5000 nM | 128 nM | –
9 | C=CC(=O)N1CC2(CCN(c3nc4c(c(-c5ncccc5F)c3C#N)CCC(c3c(C)cnn3C)=C4)C2)C1 [Example 23-58, 7-(1,4-dimethyl-1H-pyrazol-5-yl)-4-(3-fluoro-2-pyridinyl)-2-(2-(2-propenoyl)-2,6-diazaspiro[3.4]octan-6-yl)-5,6-dihydro-3-quinolinecarbonitrile] | 2060 nM | – | 10700 nM | 841 nM | –
10 | C=CC(=O)N1CC2(CCN(c3nc4c(c(-c5ncccc5F)c3C#N)CC[C@H](c3scnc3C)C4)C2)C1 [Example 23-60, (7S)-4-(3-fluoro-2-pyridinyl)-7-(4-methyl-1,3-thiazol-5-yl)-2-(2-(2-propenoyl)-2,6-diazaspiro[3.4]octan-6-yl)-5,6,7,8-tetrahydro-3-quinolinecarbonitrile] | 47 nM | – | 14000 nM | 24 nM | –
11 | C=CC(=O)N1CC2(CCN(c3nc4c(c(-c5cc(C(F)F)ccc5Cl)c3C#N)CCN(c3scnc3C)C4)C2)C1 [Example 23-61, 4-(2-chloro-5-(difluoromethyl)phenyl)-7-(4-methyl-1,3-thiazol-5-yl)-2-(2-(2-propenoyl)-2,6-diazaspiro[3.4]octan-6-yl)-5,6,7,8-tetrahydro-1,7-naphthyridine-3-carbonitrile] | 1910 nM | – | 12400 nM | 103 nM | –
12 | C=CC(=O)N1CC2(CCN(c3nc4c(c(-c5ccccc5F)c3C#N)CCN(c3nccn3C)C4)C2)C1 [Example 34-1, 4-(2-fluorophenyl)-7-(1-methyl-1H-imidazol-2-yl)-2-(2-(2-propenoyl)-2,6-diazaspiro[3.4]octan-6-yl)-5,6,7,8-tetrahydro-1,7-naphthyridine-3-carbonitrile] | 3510 nM | – | 14100 nM | 814 nM | –
13 | C=CC(=O)N1CC2(CCN(c3nc4c(c(-c5cccc(O)c5F)c3C#N)CCN(c3scnc3C)C4)C2)C1 [Example 35-1, 4-(2-fluoro-3-hydroxyphenyl)-7-(4-methyl-1,3-thiazol-5-yl)-2-(2-(2-propenoyl)-2,6-diazaspiro[3.4]octan-6-yl)-5,6,7,8-tetrahydro-1,7-naphthyridine-3-carbonitrile] | > 5000 nM | – | > 5000 nM | 67 nM | –
14 | C=CC(=O)N1CC2(CCN(c3nc4c(c(-c5c(C)ccc6cnn(C)c56)c3C)CCN(C3(C)COC3)C4)C2)C1 [Example 36-1, 1-(6-(4-(1,6-dimethyl-1H-indazol-7-yl)-3-methyl-7-(3-methyl-3-oxetanyl)-5,6,7,8-tetrahydro-1,7-naphthyridin-2-yl)-2,6-diazaspiro[3.4]octan-2-yl)-2-propen-1-one] | 335 nM | – | 14600 nM | 589 nM | –
15 | C=CC(=O)N1CC2(CCN(c3nc4c(c(-c5c(C)ccc(OC)c5N)c3C#N)COC(C)(C)C4)C2)C1 [Example 37-1, 4-(2-amino-3-methoxy-6-methylphenyl)-7,7-dimethyl-2-(2-(2-propenoyl)-2,6-diazaspiro[3.4]octan-6-yl)-7,8-dihydro-5H-pyrano[4,3-b]pyridine-3-carbonitrile] | 96 nM | – | > 25000 nM | 214 nM | –
